From patent US5912351A, “Anhydrous 1,4-Dihydropyridines and salts thereof” (Recordati, S.A. Chemical and Pharmaceutical Company, priority 1995, dated 1999)

How the values were obtained:
[1] = test system: mouse peritoneal macrophages; experiment: Cholesteryl ester hydrolysis in macrophages; type: cell-based; settings: AcLDL 50 μg/ml + S-58035 1 μg/ml + 5 × 10^-6 M compound
Procedure: These experiments were performed by incubating cells preloaded with [^3 H]cholesterol in the presence of the specific ACAT inhibitor S-58035. The blockage of intracellular reesterification of cholesterol allowed the assessment of the ability of cells to hydrolyze the accumulated cholesterol esters.
For studies involving the quantitation of the hydrolysis of cholesteryl esters in cytoplasmic lipid droplets, cells, prepared according to the procedure in Example 6A, are loaded with cholesteryl esters by exposure for 24 hours to the medium containing 50 μg/ml acetyl LDL. [1,2-^3 H]Cholesterol is included in all loading media at a concentration of 0.5 μCi/ml. After 24 hours loading period, during which time the radiolabeled cholesterol is incorporated and esterified, the cell monolayers are washed and incubated an additional 24 hours in medium containing 0.1% bovine serum albumin to allow the intracellular pools of labelled cholesterol to equilibrate to the same specific activity. To quantitate cholesteryl ester hydrolysis, the loaded cells are incubated for up to 24 hours in Dulbecco's minimum essential medium containing, 0.1% bovine serum albumin, lercanidipines, and the compound S-58035, an inhibitor of acyl-coenzyme A-cholesterol acyltransferase. The inhibition of acyl-coenzyme A-cholesterol acyltransferase prevents the reesterification of any free cholesterol generated by cholesteryl ester hydrolysis and thus allows assessment of the activity of the hydrolase. The hydrolysis of the cholesteryl esters is quantified by determining the decrease of radiolabeled cholesteryl esters (E. H. Harrison et al., J. Lipid. Res. 31: […] with phosphate buffered saline and extracted with hexane:isopropanol (3:2 v/v). The media were extracted with chloroform:methanol (2:1 v/v). After solvent removal, free and esterified cholesterol were separated by TLC (isooctane:diethyl ether:acetic acid, 75:25:2 by volume). Cholesterol mass or radioactivity of the spots were determined by an enzymatic method (Boehringer Mannheim, Germany) (F. Bernini et al., Atherosclerosis 104: 19 (1993)) or by liquid scintillation counting (Lipoluma Lumac, Landgraf, The Netherlands) respectively.

renal hypertensive dogs = experiment: Blood pressure in renal hypertensive dogs, oral administration; type: in vivo, dog; settings: for ED25: Canis lupus familiaris, linear regression analysis, read-out: ED25 (dose inducing 25% decrease in DBP at peak effect), 95% C.L.
Procedure: The antihypertensive effects of oral administration of lercanidipine and its enantiomers were tested in renal hypertensive dogs.
Male Beagle dogs weighing 12-13 kg, aging 1-3 years (Nossan Allevamenti, Italy) were used. Chronic sustained hypertension was induced by bilateral renal artery constriction, according to the Goldblatt method "two-kidney, two clip hypertension". Under barbiturate anaesthesia (35 mg/kg i.v.), during two different surgical interventions one month apart from each other, both renal arteries were clipped with original renal silver clips and narrowed by about 60-70%. After two months from the last intervention,an experimental renal hypertension was produced and the animals were suitable for the implantation of a catheter. Under sodium pentobarbital anaesthesia (35 mg/kg i.v.), in sterile conditions, the dogs were catheterized by inserting an indwelling cannula (PE 200 Clay Adams) into the ascending aorta through the right common carotid artery. The catheter was subcutaneously exteriorized at the back of the neck, filled with heparinized saline solution and flushed daily to prevent clotting. After a week recovery time from surgery, the animals were connected to a HP 1290A pressure transducer connected to an HP 8805B carrier amplifier of a Hewlett Packard HP 7700 multichannel polygraph, to monitor the arterial blood pressure. Heart rate was manually computed from the pressure trace.
All animals were alternatively treated with placebo, lercanidipine and its (R)- and (S)- enantiomers. The drugs were administered orally with a straight round aseptic tip catheter (Pores Serlat--France). The drugs were suspended in aqueous 0.5% Methocel A4C plus Antifoam M10 (10%). The amount administered was 1 ml/kg.
The suspending medicine was used as placebo. During experimental performance, the arterial blood pressure was continuously recorded 30 min. before (basal values) and up to 8 hours after drug administration.
The ED25 values (dose inducing 25% decrease in DBP at peak effect) were evaluated by linear regression analysis and summarized in the Table 4.

SMILES | % of cholesteryl ester [1] [%] | arterial blood pressure (renal hypertensive dogs) | ED25 (renal hypertensive dogs) [mg/kg] | decrease in DBP (renal hypertensive dogs; up to 30 mg/kg) [%] | efficacy at lowering blood pressure relative to the racemate (renal hypertensive dogs)
COC(=O)C1=C(C)NC(C)=C(C(=O)OC(C)(C)CN(C)CCC(c2ccccc2)c2ccccc2)C1c1cccc([N+](=O)[O-])c1 (racemic) [LE, methyl 1,1,N-trimethyl-N-(3,3-diphenylpropyl)-2-aminoethyl 1,4-dihydro-2,6-dimethyl-4-(3-nitrophenyl)-pyridine-3,5-dicarboxylate] | 12 ± 1.2 | dose-related decrease | 0.9 |  | 
COC(=O)C1=C(C)NC(C)=C(C(=O)OC(C)(C)CN(C)CCC(c2ccccc2)c2ccccc2)[C@@H]1c1cccc([N+](=O)[O-])c1 [(R)-LE, (R)-(-)METHYL 1,1-N-TRIMETHYL-N-(3,3-DIPHENYLPROPYL)-2-AMINOETHYL 1,4-DIHYDRO-2,6-DIMETHYL-4-(3-NITROPHENYL)PYRIDINE-3,5-DICARBOXYLATE] | 16 ± 2.1 |  | > 30 | < 10 | 
COC(=O)C1=C(C)NC(C)=C(C(=O)OC(C)(C)CN(C)CCC(c2ccccc2)c2ccccc2)[C@H]1c1cccc([N+](=O)[O-])c1 [(S)-LE, (S)-(+)-METHYL 1,1-N-TRIMETHYL-N-(3,3-DIPHENYLPROPYL)-2-AMINOETHYL 1,4-DIHYDRO-2,6-DIMETHYL-4-(3-NITROPHENYL)PYRIDINE-3,5-DICARBOXYLATE] | 14 ± 0.4 | dose-related decrease | 0.4 |  | two fold more efficacious
